From ChEMBL document CHEMBL1201862, “PubChem BioAssay data set” (2004)
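Following 48 hours of exposure in 96-well plates, responses at five concentrations were used to interpolate endpoints linearly. Here, GI50 denotes the concentration required for 50% inhibition of growth.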 The source made the active and inactive calls. Cut-off read from the data, not from the text of the source: active = GI50 up to about 1.1 µM and inactive = higher.

Columns and labels:
Assay in all cases: inhibition of tumour cell growth, NCI panel, 48 h
[1] = test system: A498
[2] = test system: OVCAR-4
[3] = test system: RXF 393
[4] = test system: HCT-116
[5] = test system: SW-620
[6] = test system: K562
[7] = test system: SNB-19
[8] = test system: MCF7
[9] = test system: SK-MEL-28
[10] = test system: UACC-257
[11] = test system: SF-539
[12] = test system: EKVX
[13] = test system: UACC-62
[14] = test system: CCRF-CEM
[15] = test system: UO-31
[16] = test system: OVCAR-3
[17] = test system: HL-60
[18] = test system: 786-0
[19] = test system: LXFL 529
[20] = test system: HCT-15

SMILES	GI50 [1]	GI50 [2]	GI50 [3]	GI50 [4]	GI50 [5]	GI50 [6]	GI50 [7]	GI50 [8]	GI50 [9]	GI50 [10]	GI50 [11]	GI50 [12]	GI50 [13]	GI50 [14]	GI50 [15]	GI50 [16]	GI50 [17]	GI50 [18]	GI50 [19]	GI50 [20]
COc1ccc(C(C)c2cc3c(cc2OC)OCO3)cc1 (stereo not given)	646 nM (active)	49400 nM (inactive)	264 nM (active)	111 nM (active)	82.8 nM (active)	38.9 nM (active)	2610 nM (inactive)	46.1 nM (active)	2330 nM (inactive)	7380 nM (inactive)	100 nM (active)	17400 nM (inactive)	200 nM (active)	131 nM (active)	272 nM (active)	107 nM (active)	80.2 nM (active)	98 nM (active)	125 nM (active)	72.3 nM
COC(=O)NC1C(C)OC(OC2C/C=C(/C)C3C=CC4C(OC5CC(OC6CCC(OC7CC(O)C(OC8CCC(O)C(C)O8)C(C)O7)C(C)O6)C(OC(C)=O)C(C)O5)C(C)CC(C)C4C3(C)/C(O)=C3/C(=O)OC4(CC(C=O)=CC(O)C4/C=C\2C)C3=O)CC1(C)[N+](=O)[O-] (stereo not given)	668 nM (active)	1820 nM (inactive)	551 nM (active)	690 nM (active)	989 nM (active)	885 nM (active)	690 nM (active)	940 nM (active)	403 nM (active)	724 nM (active)	340 nM (active)	1850 nM (inactive)	552 nM (active)	178 nM (active)	1680 nM (inactive)	971 nM (active)	1240 nM (inactive)	861 nM (active)	352 nM (active)	832 nM
CC(=O)OC1CC(n2cc(F)c(=O)[nH]c2=O)OC1CO (stereo not given)	69.3 nM (active)	59800 nM (inactive)	22200 nM (inactive)	2510 nM (inactive)	10800 nM (inactive)	15100 nM (inactive)	2720 nM (inactive)	220 nM (active)	15600 nM (inactive)	49100 nM (inactive)	41.8 nM (active)	20000 nM (inactive)	420 nM (active)	117 nM (active)	635 nM (active)	13500 nM (inactive)	4310 nM (inactive)	494 nM (active)	575 nM (active)	16100 nM
